Test results: doi:10.1101/2025.10.06.680810v1 (biorxiv, 2025)

Biological target: NLRP3 (purified) (Homo sapiens, UniProt Q96P20, K138A/K142A/R137C)
Experiment: fluorescence polarization displacement
Assay type: binding

Chain of NLRP3 (purified) (Q96P20 136-1034 R137C/K138A/K142A): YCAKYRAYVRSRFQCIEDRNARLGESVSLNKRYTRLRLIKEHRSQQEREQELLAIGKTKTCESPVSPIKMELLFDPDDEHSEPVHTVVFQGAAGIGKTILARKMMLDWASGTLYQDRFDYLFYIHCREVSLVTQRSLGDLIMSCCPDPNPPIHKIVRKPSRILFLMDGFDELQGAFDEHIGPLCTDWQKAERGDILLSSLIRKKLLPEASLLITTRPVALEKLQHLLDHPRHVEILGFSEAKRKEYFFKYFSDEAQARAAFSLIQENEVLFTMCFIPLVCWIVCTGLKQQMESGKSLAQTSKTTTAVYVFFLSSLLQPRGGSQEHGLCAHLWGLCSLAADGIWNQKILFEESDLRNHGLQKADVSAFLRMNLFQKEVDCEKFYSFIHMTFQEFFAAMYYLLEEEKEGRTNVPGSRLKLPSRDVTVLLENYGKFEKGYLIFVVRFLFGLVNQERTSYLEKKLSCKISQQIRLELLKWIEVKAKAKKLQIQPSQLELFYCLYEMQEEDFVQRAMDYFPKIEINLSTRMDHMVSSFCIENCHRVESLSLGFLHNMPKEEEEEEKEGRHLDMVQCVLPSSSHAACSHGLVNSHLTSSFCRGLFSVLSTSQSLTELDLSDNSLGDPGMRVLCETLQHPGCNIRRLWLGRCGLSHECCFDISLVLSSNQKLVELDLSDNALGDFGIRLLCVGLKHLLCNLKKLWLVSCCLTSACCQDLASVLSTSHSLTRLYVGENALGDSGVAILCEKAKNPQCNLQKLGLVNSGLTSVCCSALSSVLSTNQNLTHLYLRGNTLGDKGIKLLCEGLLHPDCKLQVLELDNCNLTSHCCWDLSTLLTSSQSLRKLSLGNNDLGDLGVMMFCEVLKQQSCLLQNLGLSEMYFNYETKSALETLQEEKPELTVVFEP

IC50: 19.3 ± 2.2 nM
Structure (SMILES): O=C(CN1C[C@@H](C(F)(F)F)c2cc(I)ccc2C1=O)Nc1ncc(F)cn1 [TN-783, N-(5-fluoropyrimidin-2-yl)-2-[(4s)-6-iodo-1-oxo-4-(trifluoromethyl)-3,4-dihydroisoquinolin-2-yl]acetamide]
